Series [1] has as its target T1, Tyrosine-protein kinase JAK3 (Homo sapiens, UniProt P52333).
T1 sequence (P52333 whole entry): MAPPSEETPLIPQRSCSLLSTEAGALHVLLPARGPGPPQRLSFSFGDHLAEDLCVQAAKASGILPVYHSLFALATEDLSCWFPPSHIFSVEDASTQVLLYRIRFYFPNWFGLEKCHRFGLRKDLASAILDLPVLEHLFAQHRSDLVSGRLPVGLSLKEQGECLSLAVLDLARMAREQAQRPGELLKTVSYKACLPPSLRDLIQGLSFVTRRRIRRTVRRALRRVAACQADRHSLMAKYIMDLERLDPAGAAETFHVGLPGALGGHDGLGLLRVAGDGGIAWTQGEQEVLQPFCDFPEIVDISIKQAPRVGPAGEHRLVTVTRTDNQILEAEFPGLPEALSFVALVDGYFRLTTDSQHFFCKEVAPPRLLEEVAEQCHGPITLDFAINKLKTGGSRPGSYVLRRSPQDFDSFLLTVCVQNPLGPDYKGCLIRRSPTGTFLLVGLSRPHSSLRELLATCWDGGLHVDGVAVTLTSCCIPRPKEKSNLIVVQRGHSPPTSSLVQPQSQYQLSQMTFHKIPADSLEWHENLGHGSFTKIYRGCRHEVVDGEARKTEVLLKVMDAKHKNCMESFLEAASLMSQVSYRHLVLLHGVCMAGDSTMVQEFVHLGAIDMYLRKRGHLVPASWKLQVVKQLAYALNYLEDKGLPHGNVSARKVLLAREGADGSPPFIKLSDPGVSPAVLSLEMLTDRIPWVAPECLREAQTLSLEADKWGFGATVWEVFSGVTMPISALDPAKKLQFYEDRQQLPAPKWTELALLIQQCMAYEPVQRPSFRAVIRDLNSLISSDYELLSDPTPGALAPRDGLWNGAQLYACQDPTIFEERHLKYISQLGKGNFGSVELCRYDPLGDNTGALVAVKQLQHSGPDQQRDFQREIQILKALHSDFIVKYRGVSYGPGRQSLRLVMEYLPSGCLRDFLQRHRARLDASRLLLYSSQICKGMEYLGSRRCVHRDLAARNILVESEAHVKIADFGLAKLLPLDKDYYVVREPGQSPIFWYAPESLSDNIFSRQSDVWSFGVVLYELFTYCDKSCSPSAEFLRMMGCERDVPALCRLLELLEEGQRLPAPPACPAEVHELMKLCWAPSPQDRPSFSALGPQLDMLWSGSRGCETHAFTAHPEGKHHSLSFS
Description: Inhibition of recombinant human JAK3 (781 to 1124 residues) expressed in baculovirus expression system assessed as reduction in polypeptide substrate phosphorylation in presence of ATP by ELISA

Series [2] deals with T1, Tyrosine-protein kinase JAK3. The source holds these as a separate data set.
Series [3] addresses T2, Tyrosine-protein kinase JAK2 (Homo sapiens, UniProt O60674). Description: Inhibition of kinase tracer-05 binding to C-terminal NanoLuc tagged full length JAK2 (unknown origin) expressed in HEK cells by NanoBRET assay. Format: cell-based.
Series [4] deals with Tyrosine-protein kinase BTK (Homo sapiens, UniProt Q06187). Nature of the series: Inhibition of kinase tracer-05 binding to C-terminal NanoLuc tagged full length BTK (unknown origin) expressed in HEK cells by NanoBRET assay. It counts as cell-based.
Series [5] in a line: Metabolic stability in mouse liver microsomes assessed as parent compound remaining at 100 uM after 180 mins in presence of NADPH regenerating system by LC-MS analysis. It counts as ADME, microsome. Particulars: read-out: Stability.
Series [6] is described as follows: Metabolic stability in human whole blood assessed as parent compound remaining at 1 uM after 180 mins by LC-MS analysis. Format: ADME, tissue-based. Particulars: read-out: Stability.
The target of series [7] is T3, Tyrosine-protein kinase JAK1 (Homo sapiens, UniProt P23458).
Description: Inhibition of human JAK1 using poly[Glu:Tyr] (4:1) as substrate in presence of 10 uM [gamma33P]ATP by radiometric method
The target in series [8] is T2, Tyrosine-protein kinase JAK2.
Description: Inhibition of human JAK2 using poly[Glu:Tyr] (4:1) as substrate in presence of 10 uM [gamma33P]ATP by radiometric method
For series [9], the target named is Non-receptor tyrosine-protein kinase TYK2 (Homo sapiens, UniProt P29597).
The target in series [10] is T3, Tyrosine-protein kinase JAK1. This is another data set of the same source.
Description: Inhibition of kinase tracer-04 binding to C-terminal NanoLuc tagged full length JAK1 (unknown origin) expressed in HEK cells by NanoBRET assay
Series [11] concerns the target T1, Tyrosine-protein kinase JAK3. This is another data set of the same source.
Description: Inhibition of kinase tracer-05 binding to C-terminal NanoLuc tagged full length JAK3 (unknown origin) expressed in HEK cells by NanoBRET assay
Series [12] in a line: Thiol reactivity in kinase assay buffer in presence of DTT. Format: physicochemical.
A short description of series [13]: Aqueous solubility in HEPES buffer. It counts as physicochemical.
Series [14] in a line: Aqueous solubility in pH 7.4 PBS buffer by HPLC analysis. Format: physicochemical.
A short description of series [15]: Half life in human whole blood at 1 uM by LC-MS analysis. Format: ADME, tissue-based.

Converted amounts (≈) assume the structure as drawn. A value given as a limit tells only on which side of the number the result lay.

Chain of Tyrosine-protein kinase BTK (Q06187 whole entry): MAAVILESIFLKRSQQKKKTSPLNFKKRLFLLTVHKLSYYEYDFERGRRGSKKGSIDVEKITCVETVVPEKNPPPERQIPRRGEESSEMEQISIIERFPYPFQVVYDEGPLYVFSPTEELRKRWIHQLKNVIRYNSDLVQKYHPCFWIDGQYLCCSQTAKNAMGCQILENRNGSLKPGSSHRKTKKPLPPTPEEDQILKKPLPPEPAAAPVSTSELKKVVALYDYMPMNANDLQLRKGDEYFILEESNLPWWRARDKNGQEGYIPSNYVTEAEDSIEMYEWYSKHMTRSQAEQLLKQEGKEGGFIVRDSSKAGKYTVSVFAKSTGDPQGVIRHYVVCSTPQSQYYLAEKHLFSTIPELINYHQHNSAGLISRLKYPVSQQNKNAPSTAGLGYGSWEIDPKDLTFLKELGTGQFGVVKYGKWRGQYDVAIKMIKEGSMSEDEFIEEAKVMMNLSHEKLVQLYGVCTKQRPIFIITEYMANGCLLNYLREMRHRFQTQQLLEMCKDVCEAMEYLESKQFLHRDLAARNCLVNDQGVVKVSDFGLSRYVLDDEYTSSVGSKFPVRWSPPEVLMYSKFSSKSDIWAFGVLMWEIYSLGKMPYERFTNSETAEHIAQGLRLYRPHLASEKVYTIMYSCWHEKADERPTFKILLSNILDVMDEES
T3 sequence (P23458 whole entry): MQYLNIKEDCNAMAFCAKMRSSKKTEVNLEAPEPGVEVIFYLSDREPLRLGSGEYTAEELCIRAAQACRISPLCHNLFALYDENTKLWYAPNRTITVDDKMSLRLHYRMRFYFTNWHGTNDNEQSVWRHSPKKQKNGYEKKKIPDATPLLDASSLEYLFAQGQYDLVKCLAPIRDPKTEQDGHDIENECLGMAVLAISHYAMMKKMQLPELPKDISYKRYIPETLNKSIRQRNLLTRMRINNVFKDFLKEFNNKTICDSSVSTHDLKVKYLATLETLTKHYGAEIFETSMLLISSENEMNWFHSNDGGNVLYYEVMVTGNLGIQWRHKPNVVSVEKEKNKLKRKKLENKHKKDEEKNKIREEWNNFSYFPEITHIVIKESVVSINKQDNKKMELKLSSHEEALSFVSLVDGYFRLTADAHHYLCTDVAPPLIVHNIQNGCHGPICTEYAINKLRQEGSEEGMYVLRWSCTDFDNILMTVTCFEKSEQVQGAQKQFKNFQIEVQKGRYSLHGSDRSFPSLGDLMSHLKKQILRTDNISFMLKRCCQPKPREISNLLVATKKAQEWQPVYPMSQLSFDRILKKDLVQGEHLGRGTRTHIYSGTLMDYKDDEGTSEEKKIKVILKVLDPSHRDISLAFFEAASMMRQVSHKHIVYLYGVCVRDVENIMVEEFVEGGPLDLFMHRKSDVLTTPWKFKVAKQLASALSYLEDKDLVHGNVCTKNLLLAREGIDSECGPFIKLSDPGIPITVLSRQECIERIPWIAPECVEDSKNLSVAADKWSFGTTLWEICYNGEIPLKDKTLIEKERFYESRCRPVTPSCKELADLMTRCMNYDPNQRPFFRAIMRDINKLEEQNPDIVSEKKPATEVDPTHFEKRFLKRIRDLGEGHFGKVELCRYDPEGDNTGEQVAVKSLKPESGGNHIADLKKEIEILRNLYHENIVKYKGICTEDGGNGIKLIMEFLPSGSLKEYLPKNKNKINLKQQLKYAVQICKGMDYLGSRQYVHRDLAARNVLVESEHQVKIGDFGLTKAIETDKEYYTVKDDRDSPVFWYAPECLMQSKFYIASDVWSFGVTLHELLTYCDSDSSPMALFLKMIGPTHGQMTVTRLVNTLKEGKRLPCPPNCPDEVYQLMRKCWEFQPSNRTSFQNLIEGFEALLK
Chain of Non-receptor tyrosine-protein kinase TYK2 (P29597 whole entry): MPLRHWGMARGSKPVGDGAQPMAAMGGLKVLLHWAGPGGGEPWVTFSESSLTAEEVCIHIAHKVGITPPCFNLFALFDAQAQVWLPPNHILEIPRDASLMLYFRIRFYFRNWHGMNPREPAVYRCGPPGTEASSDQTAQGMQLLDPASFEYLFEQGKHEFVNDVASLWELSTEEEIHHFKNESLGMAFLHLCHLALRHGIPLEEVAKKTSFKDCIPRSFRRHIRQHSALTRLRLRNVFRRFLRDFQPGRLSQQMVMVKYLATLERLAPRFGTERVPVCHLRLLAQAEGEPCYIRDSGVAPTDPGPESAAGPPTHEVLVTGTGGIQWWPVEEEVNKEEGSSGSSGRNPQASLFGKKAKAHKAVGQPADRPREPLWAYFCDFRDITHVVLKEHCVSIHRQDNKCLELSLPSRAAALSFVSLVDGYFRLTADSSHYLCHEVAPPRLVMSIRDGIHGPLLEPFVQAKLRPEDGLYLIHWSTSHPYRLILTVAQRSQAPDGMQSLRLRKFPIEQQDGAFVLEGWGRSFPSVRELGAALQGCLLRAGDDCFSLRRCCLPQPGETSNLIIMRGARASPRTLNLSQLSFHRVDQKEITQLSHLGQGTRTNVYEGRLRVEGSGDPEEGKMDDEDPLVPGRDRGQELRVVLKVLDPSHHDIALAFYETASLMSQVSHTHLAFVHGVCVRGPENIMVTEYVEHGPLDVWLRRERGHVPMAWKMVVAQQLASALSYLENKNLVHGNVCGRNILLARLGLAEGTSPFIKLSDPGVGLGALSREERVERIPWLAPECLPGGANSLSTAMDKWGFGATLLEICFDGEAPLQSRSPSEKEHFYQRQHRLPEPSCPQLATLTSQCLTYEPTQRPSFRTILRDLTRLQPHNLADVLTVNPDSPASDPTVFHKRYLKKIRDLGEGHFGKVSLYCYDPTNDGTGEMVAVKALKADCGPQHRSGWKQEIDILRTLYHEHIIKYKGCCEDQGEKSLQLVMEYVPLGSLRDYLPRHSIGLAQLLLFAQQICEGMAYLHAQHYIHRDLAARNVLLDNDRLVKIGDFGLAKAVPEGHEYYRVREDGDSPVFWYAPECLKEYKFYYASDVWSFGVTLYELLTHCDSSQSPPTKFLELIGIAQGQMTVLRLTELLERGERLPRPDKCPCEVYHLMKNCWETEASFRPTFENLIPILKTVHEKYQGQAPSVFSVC
T2 sequence (O60674 whole entry): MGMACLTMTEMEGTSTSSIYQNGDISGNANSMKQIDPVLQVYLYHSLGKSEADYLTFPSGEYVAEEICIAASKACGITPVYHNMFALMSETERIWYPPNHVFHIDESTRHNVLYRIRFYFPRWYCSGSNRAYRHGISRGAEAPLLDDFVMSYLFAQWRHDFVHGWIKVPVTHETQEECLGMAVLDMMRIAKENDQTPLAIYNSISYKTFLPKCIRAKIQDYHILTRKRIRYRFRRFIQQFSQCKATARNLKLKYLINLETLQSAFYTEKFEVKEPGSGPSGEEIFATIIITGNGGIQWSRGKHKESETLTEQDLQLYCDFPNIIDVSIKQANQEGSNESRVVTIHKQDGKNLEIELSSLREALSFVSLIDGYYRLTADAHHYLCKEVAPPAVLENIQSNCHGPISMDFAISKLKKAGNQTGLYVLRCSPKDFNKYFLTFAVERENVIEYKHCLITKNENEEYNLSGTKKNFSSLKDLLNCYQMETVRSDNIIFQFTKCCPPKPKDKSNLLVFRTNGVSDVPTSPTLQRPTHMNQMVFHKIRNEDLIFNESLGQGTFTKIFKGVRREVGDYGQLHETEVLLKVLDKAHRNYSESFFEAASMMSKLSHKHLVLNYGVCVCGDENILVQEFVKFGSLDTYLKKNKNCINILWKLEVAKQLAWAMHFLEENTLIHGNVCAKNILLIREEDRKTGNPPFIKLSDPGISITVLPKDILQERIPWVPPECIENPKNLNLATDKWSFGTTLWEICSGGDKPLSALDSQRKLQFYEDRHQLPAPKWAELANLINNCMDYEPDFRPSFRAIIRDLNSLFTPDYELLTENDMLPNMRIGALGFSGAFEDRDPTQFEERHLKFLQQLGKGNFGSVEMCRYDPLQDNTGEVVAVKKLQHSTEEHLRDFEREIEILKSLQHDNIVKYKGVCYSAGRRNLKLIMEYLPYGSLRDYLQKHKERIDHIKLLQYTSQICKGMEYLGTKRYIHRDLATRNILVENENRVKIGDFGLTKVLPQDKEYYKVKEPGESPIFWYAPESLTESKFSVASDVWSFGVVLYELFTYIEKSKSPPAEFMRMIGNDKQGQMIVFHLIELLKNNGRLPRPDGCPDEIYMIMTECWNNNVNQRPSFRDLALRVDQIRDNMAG

With `N#C/C=C/c1ccc(-c2nc3cnc4[nH]ccc4c3n2C2CCCCC2)o1`, the IC50 in [1] is 27 nM; in series [2] it was 0.21 nM; in series [7], 12 nM; in series [8], 53 nM; in [9] it was 44 nM. In addition, the EC50 in series [3] is 7710 nM; in series [4], 13300 nM; in [10], greater than 10000 nM; in [11], 740 nM. The remaining at 3 h, 100 µM in series [5] is 53.9%. Also, the remaining at 3 h, 1 µM in [6] is 98.8%.

In the case of `N#CC(C#N)=Cc1ccc(-c2nc3cnc4[nH]ccc4c3n2C2CCCCC2)o1`, the IC50 in [1] stood at 4 nM; in series [2], 0.39 nM; in series [7] it was 4 nM; in series [8], 188 nM; in [9], 14 nM. Further, the Drug metabolism result in [12] is on record as “Metabolite_Detected”. Besides, the EC50 in series [3] was found to be 630 nM; in series [4], 5790 nM; in series [10], 7660 nM; in series [11], 678 nM. For the same molecule, the remaining at 3 h, 100 µM in [5] is 11%. Also, the remaining at 3 h, 1 µM in [6] is 1.5%.

`NC(=O)/C=C/c1ccc(-c2nc3cnc4[nH]ccc4c3n2C2CCCCC2)cc1`: the IC50 in series [1] is greater than 1000 nM. For the same molecule, the solubility result in series [13] is “Insoluble”.

In the case of `NC(=O)CCc1cccc(-c2nc3cnc4[nH]ccc4c3n2C2CCCCC2)c1`, the IC50 in series [1] came to 490 nM.

For `CN(C)C(=O)CCc1ccc(-c2nc3cnc4[nH]ccc4c3n2C2CCCCC2)o1`, the IC50 in series [1] turned out to be 181 nM; in series [2], 48 nM; in series [7], 45 nM; in series [8] it was 183 nM; in [9], 139 nM.

Take `N#CCCc1ccc(-c2nc3cnc4[nH]ccc4c3n2C2CCCCC2)o1`: the IC50 in series [1] is 129 nM; in series [2] it was 10 nM; in series [7], 16 nM; in series [8], 48 nM; in series [9], 25 nM.

In the case of `CN(C)C(=O)C(C#N)=Cc1ccc(-c2nc3cnc4[nH]ccc4c3n2C2CCCCC2)cc1`, in series [1], the IC50 came out at 571 nM.

`CN(C)C(=O)CCc1ccc(-c2nc3cnc4[nH]ccc4c3n2C2CCCCC2)cc1`: half-maximal inhibition in series [1] (IC50) required 642 nM.

In the case of `N#CC(C#N)=Cc1ccc(-c2nc3cnc4[nH]ccc4c3n2C2CCCCC2)cc1`, the IC50 in series [1] stood at 30 nM. In addition, in series [12], the Drug metabolism result is on record as “Metabolite_Detected”.

Molecule `CNC(=O)C(C#N)=Cc1ccc(-c2nc3cnc4[nH]ccc4c3n2C2CCCCC2)o1` returned an IC50 in [1] of 23 nM.

For the molecule `NC(=O)CCc1ccc(-c2nc3cnc4[nH]ccc4c3n2C2CCCCC2)o1`, inhibition in series [1] was half-maximal at 59 nM (IC50).

Turning to `CN1CCN(C(=O)C(C#N)=Cc2ccc(-c3nc4cnc5[nH]ccc5c4n3C3CCCCC3)o2)CC1`, the IC50 in [1] came to 14 nM; in [2], 0.74 nM; in series [7], 117 nM; in series [8] it was 765 nM; in series [9], 791 nM. In addition, the EC50 in series [3] was greater than 10000 nM; in series [4], greater than 10000 nM; in [10], greater than 10000 nM; in series [11] it was 257 nM. Moreover, the remaining at 3 h, 100 µM in [5] turned out to be 6.9%. Also, the remaining at 3 h, 1 µM in [6] was found to be 47%. Also, the concentration in solution in [14] (solubility) came to 248 µM (≈ 120 µg/mL). In addition, in [15], the half-life at 1 µM was 3 h.

For the molecule `N#CC(C#N)=Cc1cccc(-c2nc3cnc4[nH]ccc4c3n2C2CCCCC2)c1`, inhibition in series [1] was half-maximal at 11 nM (IC50). The Drug metabolism entry in series [12] is on record as “Metabolite_Detected”.

As for `CN(C)C(=O)CCc1cccc(-c2nc3cnc4[nH]ccc4c3n2C2CCCCC2)c1`, in series [1], the half-inhibitory concentration (IC50) came to 678 nM.

On to `N#C/C=C/c1ccc(-c2nc3cnc4[nH]ccc4c3n2C2CCCCC2)cc1`, for which the IC50 in series [1] is 390 nM.

In the case of `CN(C)C(=O)C(C#N)=Cc1ccc(-c2nc3cnc4c(ccn4C)c3n2C2CCCCC2)o1`, in [1], the IC50 is greater than 10000 nM.

In turn, `CN(C)C(=O)C(C#N)=Cc1ccc(-c2nc3cnc4[nH]ccc4c3n2C2CCCCC2)o1` returned an EC50 in [4] greater than 10000 nM. Besides, the remaining at 3 h, 100 µM in series [5] is 58%. Moreover, the remaining at 3 h, 1 µM in [6] worked out at 49.4%. Besides, the solubility in series [14] stood at 56 µM (≈ 24 µg/mL). This molecule also had a half-life at 1 µM in series [15] of 3 h.

With `N#CCCc1ccc(-c2nc3cnc4[nH]ccc4c3n2C2CCCCC2)cc1`, half-maximal inhibition in [1] (IC50) was put at 436 nM.

Take `CC(C)(O)C(=O)N1CCN(c2ccc(C(F)(F)F)c(C3=C(c4c[nH]c5ccccc45)C(=O)NC3=O)c2)CC1`: the concentration for half-maximal inhibition (IC50) in [7] stood at 344 nM; in series [9], 2110 nM.

For the molecule `CN(C)C(=O)C(C#N)=Cc1cccc(-c2nc3cnc4[nH]ccc4c3n2C2CCCCC2)c1`, in series [1], the IC50 is 205 nM.

In [1], `NC(=O)CCc1ccc(-c2nc3cnc4[nH]ccc4c3n2C2CCCCC2)cc1` came in with an IC50 of 499 nM.

In [1], `N#C/C=C/c1cccc(-c2nc3cnc4[nH]ccc4c3n2C2CCCCC2)c1` had an IC50 of 135 nM.

Regarding `CN(C)C(=O)C(C#N)=Cc1ccc(-c2nc3cnc4[nH]ccc4c3n2C)o1`, in [1], the IC50 was 368 nM.

As to `N#CCCc1cccc(-c2nc3cnc4[nH]ccc4c3n2C2CCCCC2)c1`, 505 nM corresponded to half-maximal inhibition in series [1] (IC50).

In [1], `NC(=O)/C=C/c1ccc(-c2nc3cnc4[nH]ccc4c3n2C2CCCCC2)o1` gave an IC50 of 129 nM.

The record behind these values is ChEMBL document CHEMBL4118225, “Development, Optimization, and Structure-Activity Relationships of Covalent-Reversible JAK3 Inhibitors Based on a Tricyclic Imidazo[5,4- d]pyrrolo[2,3- b]pyridine Scaffold” (J Med Chem, 2018).
